We go through eleven molecules from paper PMC3949122 (Current biology : CB, 2014).

For assay [1], the system named is TRPA1. Particulars: cited from earlier work; for activation of TRPA1 via covalent modification: ref [40]-[44]; for activation of TRPA1 by allosteric modulators: interact with transmembrane domains, not the intracellular C-terminus, ref [41], [45], [46].
Assay [2] has as its target TRPA1 (Homo sapiens, UniProt O75762). It counts as cell-based. The settings on record: alanine scanning of t-ProTx-I; label = residue mutated to Ala.
A further assay deals with NaV1.2. The format is cell-based. The settings on record: membrane-tethered, co-expressed; voltage-induced currents.

Read-outs that look alike come from different tables or passages of the source. Where no end group is shown, it is not given here.

TRPA1 (Homo sapiens, UniProt O75762), sequence (O75762 whole entry): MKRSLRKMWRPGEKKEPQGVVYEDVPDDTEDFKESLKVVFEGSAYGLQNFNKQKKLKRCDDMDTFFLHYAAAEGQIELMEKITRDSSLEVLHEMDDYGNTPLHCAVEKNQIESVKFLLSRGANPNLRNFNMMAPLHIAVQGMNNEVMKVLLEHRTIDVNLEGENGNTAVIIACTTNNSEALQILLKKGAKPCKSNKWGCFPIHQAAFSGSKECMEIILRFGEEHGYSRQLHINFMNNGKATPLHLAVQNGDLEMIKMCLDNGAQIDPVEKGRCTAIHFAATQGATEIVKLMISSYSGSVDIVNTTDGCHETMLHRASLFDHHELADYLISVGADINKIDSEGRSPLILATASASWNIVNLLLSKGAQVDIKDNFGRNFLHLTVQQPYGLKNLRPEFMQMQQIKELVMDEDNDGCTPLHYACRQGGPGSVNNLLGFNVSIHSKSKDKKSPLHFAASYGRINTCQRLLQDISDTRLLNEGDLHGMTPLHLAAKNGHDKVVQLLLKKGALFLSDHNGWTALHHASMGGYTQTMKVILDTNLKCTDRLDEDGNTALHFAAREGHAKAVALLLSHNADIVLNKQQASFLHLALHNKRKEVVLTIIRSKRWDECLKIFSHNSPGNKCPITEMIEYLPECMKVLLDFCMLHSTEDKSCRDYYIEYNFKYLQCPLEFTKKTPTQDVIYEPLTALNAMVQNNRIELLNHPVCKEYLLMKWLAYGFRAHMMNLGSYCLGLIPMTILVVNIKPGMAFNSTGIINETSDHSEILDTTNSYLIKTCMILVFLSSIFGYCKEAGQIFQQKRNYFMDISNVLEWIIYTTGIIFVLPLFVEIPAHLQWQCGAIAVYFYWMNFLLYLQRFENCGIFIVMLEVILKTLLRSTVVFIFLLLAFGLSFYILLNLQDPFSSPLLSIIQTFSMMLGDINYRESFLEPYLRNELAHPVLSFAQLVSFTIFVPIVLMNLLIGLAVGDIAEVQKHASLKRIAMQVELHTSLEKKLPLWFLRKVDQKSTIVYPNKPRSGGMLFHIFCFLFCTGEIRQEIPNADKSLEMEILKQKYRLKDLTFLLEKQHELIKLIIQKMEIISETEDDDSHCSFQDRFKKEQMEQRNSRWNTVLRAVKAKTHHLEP

Turning to `CCCCCC(O)/C=C/C=O` (stereo not shown) [4-hydroxy-nonenal], in the assay with TRPA1 [1], the “activation of TRPA1 via covalent modification” value is recorded as “activates TRPA1”.
Turning to `C=CCS[S+]([O-])CC=C` (stereo not shown) [allicin], in the assay with TRPA1 [1] (ref [5], [6]), the “activation of TRPA1” value is recorded as “activated”.
For the molecule `C=CCN=C=S` [allyl isothiocyanate], in the assay on TRPA1 [1], the “activation of TRPA1 via covalent modification” value is reported as “activates TRPA1”. Besides, the “activation of TRPA1” value in the assay on TRPA1 [1] (ref [5], [6]) is reported as “activated”.
Turning to `Cc1ccc(C(C)C)cc1O` [carvacrol], the “activation of TRPA1 by allosteric modulators” value with TRPA1 [1] is given as “allosteric modulators”.
Take `CN(C)CCCN1c2ccccc2Sc2ccc(Cl)cc21` [chlorpromazine]: the “activation of TRPA1” value with TRPA1 [1] (ref [8]) is “activated”.
On to `Oc1c(I)cc(Cl)c2cccnc12` [clioquinol], for which the “activation of TRPA1” value with TRPA1 [1] (ref [9]) is on record as “activated”.
Turning to `Clc1ccccc1C(c1ccccc1)(c1ccccc1)n1ccnc1` [clotrimazole], the “activation of TRPA1” value with TRPA1 [1] (ref [7]) is reported as “activated”.
As to `OO` [hydrogen peroxide], the “activation of TRPA1 via covalent modification” value with TRPA1 [1] was “activates TRPA1”.
Consider `OCl` [hypochlorite], for which the “activation of TRPA1 via covalent modification” value in the assay with TRPA1 [1] is listed as “activates TRPA1”.
Regarding `CC1CCC(C(C)C)C(O)C1` (stereo not shown) [menthol], in the assay with TRPA1 [1], the “activation of TRPA1 by allosteric modulators” value is on record as “allosteric modulators”.
As for “t-ProTx-I (S22A) (ECRYWLGGCSAGQTCCKHLVCARRHGWCVWDGTFS; ends and bridges not checked; also: membrane tether; UniProt P83480 1-35, looked up, variant S22A)”, in the assay with TRPA1 [2], the “residue whose mutation to alanine reduces inhibition of TRPA1 (binding surface)” value is recorded as “in common between the two binding surfaces”. Further, the “activity of t-ProTx-I alanine mutant against NaV1.2 / voltage-gated sodium channels” value in the assay on NaV1.2 is “strongly active”.
